Measured values from the NIST ThermoML archive (doi:10.1021/je800110r).
Where “and” joins values, the source holds several entries; their conditions need not be identical. Equal entries are not always repeated. ± gives the expanded uncertainty stated by the source.

Details: 293.15 K, Liquid, Vibrating tube method

CCCCCCCCCC [decane]
Details	mass density
375 kPa	730.1 ± 2 kg/m3
394 kPa	730.1 ± 2 kg/m3
411 kPa	730.1 ± 2 kg/m3
427 kPa	730.1 ± 2 kg/m3
448 kPa	730.1 ± 2 kg/m3
469 kPa	730.1 ± 2 kg/m3
487 kPa	730.1 ± 2 kg/m3
510 kPa	730.2 ± 2 kg/m3
528 kPa	730.3 ± 2 kg/m3
551 kPa	730.3 ± 2 kg/m3
571 kPa	730.3 ± 2 kg/m3
605 kPa	730.4 ± 2 kg/m3
692 kPa	730.3 ± 2 kg/m3
760 kPa	730.4 ± 2 kg/m3
843 kPa	730.5 ± 2 kg/m3
898 kPa	730.6 ± 2 kg/m3
949 kPa	730.5 ± 2 kg/m3
998 kPa	730.6 ± 2 kg/m3
1057 kPa	730.6 ± 2 kg/m3
1102 kPa	730.7 ± 2 kg/m3
1141 kPa	730.7 ± 2 kg/m3
1165 kPa	730.8 ± 2 kg/m3
1196 kPa	730.7 ± 2 kg/m3
1214 kPa	730.7 ± 2 kg/m3
1243 kPa	730.8 ± 2 kg/m3
1266 kPa	730.8 ± 2 kg/m3
1302 kPa	730.9 ± 2 kg/m3
1332 kPa	730.8 ± 2 kg/m3
1362 kPa	730.9 ± 2 kg/m3
1397 kPa	730.9 ± 2 kg/m3
1430 kPa	730.9 ± 2 kg/m3
1459 kPa	730.9 ± 2 kg/m3
1493 kPa	731 ± 2 kg/m3
1535 kPa	731.1 ± 2 kg/m3
1567 kPa	731.1 ± 2 kg/m3
1623 kPa	731 ± 2 kg/m3
1669 kPa	731.1 ± 2 kg/m3
1712 kPa	731.2 ± 2 kg/m3
1762 kPa	731.3 ± 2 kg/m3
1802 kPa	731.2 ± 2 kg/m3
1843 kPa	731.3 ± 2 kg/m3
1915 kPa	731.4 ± 2 kg/m3
1974 kPa	731.3 ± 2 kg/m3
2021 kPa	731.5 ± 2 kg/m3
2094 kPa	731.4 ± 2 kg/m3
2187 kPa	731.5 ± 2 kg/m3
2240 kPa	731.6 ± 2 kg/m3
2295 kPa	731.6 ± 2 kg/m3
2363 kPa	731.7 ± 2 kg/m3
2423 kPa	731.7 ± 2 kg/m3
2496 kPa	731.7 ± 2 kg/m3
2561 kPa	731.9 ± 2 kg/m3
2629 kPa	731.9 ± 2 kg/m3
2700 kPa	731.8 ± 2 kg/m3
2720 kPa	732.1 ± 2 kg/m3
2731 kPa	732 ± 2 kg/m3
2742 kPa	732 ± 2 kg/m3
2755 kPa	732 ± 2 kg/m3
2770 kPa	732 ± 2 kg/m3
2785 kPa	731.9 ± 2 kg/m3
2795 kPa	732 ± 2 kg/m3
2813 kPa	732 ± 2 kg/m3
2824 kPa	732 ± 2 kg/m3
2834 kPa	732 ± 2 kg/m3
2851 kPa	732.1 ± 2 kg/m3
2884 kPa	732 ± 2 kg/m3
2939 kPa	732.1 ± 2 kg/m3
3009 kPa	732.1 ± 2 kg/m3
3026 kPa	732.2 ± 2 kg/m3
3040 kPa	732.2 ± 2 kg/m3
3052 kPa	732.1 ± 2 kg/m3
3064 kPa	732.2 ± 2 kg/m3
3077 kPa	732.2 ± 2 kg/m3
3094 kPa	732.3 ± 2 kg/m3
3109 kPa	732.1 ± 2 kg/m3
3122 kPa	732.3 ± 2 kg/m3
3136 kPa	732.1 ± 2 kg/m3
3147 kPa	732.3 ± 2 kg/m3
3155 kPa	732.2 ± 2 kg/m3
3188 kPa	732.2 ± 2 kg/m3
3283 kPa	732.4 ± 2 kg/m3
3344 kPa	732.4 ± 2 kg/m3
3442 kPa	732.5 ± 2 kg/m3
3479 kPa	732.4 ± 2 kg/m3
3494 kPa	732.5 ± 2 kg/m3
3506 kPa	732.5 ± 2 kg/m3
3529 kPa	732.6 ± 2 kg/m3
3551 kPa	732.6 ± 2 kg/m3
3564 kPa	732.6 ± 2 kg/m3
3584 kPa	732.6 ± 2 kg/m3
3599 kPa	732.7 ± 2 kg/m3
3619 kPa	732.7 ± 2 kg/m3
3635 kPa	732.7 ± 2 kg/m3
3653 kPa	732.6 ± 2 kg/m3
3672 kPa	732.8 ± 2 kg/m3
3690 kPa	732.6 ± 2 kg/m3
3705 kPa	732.8 ± 2 kg/m3
3719 kPa	732.7 ± 2 kg/m3
3735 kPa	732.8 ± 2 kg/m3
3748 kPa	732.6 ± 2 kg/m3
3764 kPa	732.8 ± 2 kg/m3
3781 kPa	732.7 ± 2 kg/m3
3793 kPa	732.9 ± 2 kg/m3
3810 kPa	732.7 ± 2 kg/m3
3829 kPa	732.9 ± 2 kg/m3
3842 kPa	732.8 ± 2 kg/m3
3861 kPa	732.8 ± 2 kg/m3
3881 kPa	732.8 ± 2 kg/m3
3894 kPa	732.8 ± 2 kg/m3
3916 kPa	732.9 ± 2 kg/m3
3929 kPa	732.9 ± 2 kg/m3
3952 kPa	732.9 ± 2 kg/m3
3964 kPa	732.9 ± 2 kg/m3
3984 kPa	733 ± 2 kg/m3
4001 kPa	733 ± 2 kg/m3
4012 kPa	733 ± 2 kg/m3
4029 kPa	733 ± 2 kg/m3
4046 kPa	733 ± 2 kg/m3
4060 kPa	733 ± 2 kg/m3
4084 kPa	733 ± 2 kg/m3
4099 kPa	733 ± 2 kg/m3
4117 kPa	733 ± 2 kg/m3
4130 kPa	733.1 ± 2 kg/m3
4150 kPa	733.2 ± 2 kg/m3
4166 kPa	733 ± 2 kg/m3
4190 kPa	733 ± 2 kg/m3
4211 kPa	733 ± 2 kg/m3
4226 kPa	733.1 ± 2 kg/m3
4247 kPa	733.1 ± 2 kg/m3
4269 kPa	733.3 ± 2 kg/m3
4281 kPa	733.1 ± 2 kg/m3
4302 kPa	733.2 ± 2 kg/m3
4323 kPa	733.1 ± 2 kg/m3
4338 kPa	733.2 ± 2 kg/m3
4361 kPa	733.3 ± 2 kg/m3
4382 kPa	733.2 ± 2 kg/m3
4401 kPa	733.2 ± 2 kg/m3
4420 kPa	733.3 ± 2 kg/m3
4439 kPa	733.3 ± 2 kg/m3
4450 kPa	733.5 ± 2 kg/m3
4464 kPa	733.3 ± 2 kg/m3
4478 kPa	733.3 ± 2 kg/m3
4500 kPa	733.3 ± 2 kg/m3
4518 kPa	733.3 ± 2 kg/m3
4530 kPa	733.3 ± 2 kg/m3
4544 kPa	733.3 ± 2 kg/m3
4558 kPa	733.4 ± 2 kg/m3
4571 kPa	733.3 ± 2 kg/m3
4586 kPa	733.3 ± 2 kg/m3
4595 kPa	733.3 ± 2 kg/m3
4616 kPa	733.5 ± 2 kg/m3
4637 kPa	733.4 ± 2 kg/m3
4652 kPa	733.4 ± 2 kg/m3
4671 kPa	733.3 ± 2 kg/m3
4685 kPa	733.6 ± 2 kg/m3
4705 kPa	733.4 ± 2 kg/m3
4728 kPa	733.4 ± 2 kg/m3
4742 kPa	733.5 ± 2 kg/m3
4760 kPa	733.5 ± 2 kg/m3
4773 kPa	733.5 ± 2 kg/m3
4795 kPa	733.7 ± 2 kg/m3
4810 kPa	733.6 ± 2 kg/m3
4831 kPa	733.5 ± 2 kg/m3
4849 kPa	733.6 ± 2 kg/m3
4877 kPa	733.5 ± 2 kg/m3
4901 kPa	733.6 ± 2 kg/m3
4914 kPa	733.7 ± 2 kg/m3
4937 kPa	733.6 ± 2 kg/m3
4953 kPa	733.7 ± 2 kg/m3
4976 kPa	733.7 ± 2 kg/m3
4996 kPa	733.6 ± 2 kg/m3
5014 kPa	733.8 ± 2 kg/m3
5029 kPa	733.7 ± 2 kg/m3
5053 kPa	733.7 ± 2 kg/m3
5076 kPa	733.8 ± 2 kg/m3
5091 kPa	733.8 ± 2 kg/m3
5103 kPa	733.9 ± 2 kg/m3
5127 kPa	733.8 ± 2 kg/m3
5148 kPa	733.7 ± 2 kg/m3
5166 kPa	733.9 ± 2 kg/m3
5187 kPa	733.8 ± 2 kg/m3
5202 kPa	733.8 ± 2 kg/m3
5220 kPa	733.9 ± 2 kg/m3
5234 kPa	733.8 ± 2 kg/m3
5248 kPa	733.9 ± 2 kg/m3
5264 kPa	733.9 ± 2 kg/m3
5278 kPa	733.9 ± 2 kg/m3
5297 kPa	733.8 ± 2 kg/m3
5299 kPa	733.9 ± 2 kg/m3
5304 kPa	733.9 ± 2 kg/m3
5315 kPa	733.9 ± 2 kg/m3
5319 kPa	733.9 ± 2 kg/m3
5329 kPa	733.9 ± 2 kg/m3
5335 kPa	734 ± 2 kg/m3
5346 kPa	734 ± 2 kg/m3
5352 kPa	734 ± 2 kg/m3
5362 kPa	733.9 ± 2 kg/m3
5375 kPa	734 ± 2 kg/m3
5393 kPa	733.9 ± 2 kg/m3
5395 kPa	734 ± 2 kg/m3
5409 kPa	733.9 ± 2 kg/m3
5422 kPa	734 ± 2 kg/m3
5424 kPa	734.1 ± 2 kg/m3
5440 kPa	734 ± 2 kg/m3
5459 kPa	734 ± 2 kg/m3
5475 kPa	734.1 ± 2 kg/m3
5492 kPa	734 ± 2 kg/m3
5508 kPa	734 ± 2 kg/m3
5522 kPa	734 ± 2 kg/m3
5541 kPa	734.1 ± 2 kg/m3
5556 kPa	734.1 ± 2 kg/m3
5570 kPa	734.1 ± 2 kg/m3
5592 kPa	734.1 ± 2 kg/m3
5612 kPa	734.2 ± 2 kg/m3
5626 kPa	734.2 ± 2 kg/m3
5643 kPa	734.2 ± 2 kg/m3
5656 kPa	734.2 ± 2 kg/m3
5676 kPa	734.3 ± 2 kg/m3
5696 kPa	734.2 ± 2 kg/m3
5714 kPa	734.1 ± 2 kg/m3
5734 kPa	734.3 ± 2 kg/m3
5753 kPa	734.2 ± 2 kg/m3
5771 kPa	734.3 ± 2 kg/m3
5792 kPa	734.3 ± 2 kg/m3
5808 kPa	734.4 ± 2 kg/m3
5824 kPa	734.4 ± 2 kg/m3
5839 kPa	734.4 ± 2 kg/m3
5858 kPa	734.4 ± 2 kg/m3
5880 kPa	734.4 ± 2 kg/m3
5902 kPa	734.3 ± 2 kg/m3
5918 kPa	734.4 ± 2 kg/m3
5937 kPa	734.3 ± 2 kg/m3
5957 kPa	734.4 ± 2 kg/m3
5977 kPa	734.5 ± 2 kg/m3
5992 kPa	734.4 ± 2 kg/m3
6012 kPa	734.5 ± 2 kg/m3
6035 kPa	734.5 ± 2 kg/m3
6050 kPa	734.6 ± 2 kg/m3
6077 kPa	734.6 ± 2 kg/m3
6097 kPa	734.6 ± 2 kg/m3
6112 kPa	734.6 ± 2 kg/m3
6135 kPa	734.5 ± 2 kg/m3
6161 kPa	734.6 ± 2 kg/m3
6198 kPa	734.7 ± 2 kg/m3
6243 kPa	734.6 ± 2 kg/m3
6254 kPa	734.6 ± 2 kg/m3
6257 kPa	734.6 ± 2 kg/m3
6259 kPa	734.7 ± 2 kg/m3
6262 kPa	734.6 ± 2 kg/m3
6265 kPa	734.6 ± 2 kg/m3
6266 kPa	734.7 ± 2 kg/m3 and 734.6 ± 2 kg/m3
6267 kPa	734.6 ± 2 kg/m3
6268 kPa	734.6 ± 2 kg/m3
6278 kPa	734.7 ± 2 kg/m3
6299 kPa	734.6 ± 2 kg/m3
6320 kPa	734.6 ± 2 kg/m3
6344 kPa	734.7 ± 2 kg/m3
6362 kPa	734.7 ± 2 kg/m3
6383 kPa	734.7 ± 2 kg/m3
6411 kPa	734.9 ± 2 kg/m3
6436 kPa	734.7 ± 2 kg/m3
6451 kPa	734.7 ± 2 kg/m3
6476 kPa	734.8 ± 2 kg/m3
6502 kPa	734.9 ± 2 kg/m3
6521 kPa	734.8 ± 2 kg/m3
6550 kPa	734.8 ± 2 kg/m3
6573 kPa	734.8 ± 2 kg/m3
6596 kPa	734.8 ± 2 kg/m3
6622 kPa	734.9 ± 2 kg/m3
6642 kPa	734.8 ± 2 kg/m3
6665 kPa	735 ± 2 kg/m3
6692 kPa	734.9 ± 2 kg/m3
6725 kPa	735 ± 2 kg/m3
